The subject of this assay is Aβ42. The assay is described as follows: Detection of secreted Aβ42 with Biosource ELISA kit in H4 cells expressing APP695. In kind it is cell-based. To be noted: read-out: Ab42 IC50. The protocol: The present invention provides compositions and methods for lowering Aβ42 levels. To test whether compounds and compositions are capable of modulating Aβ levels, a sandwich enzyme-linked immunosorbent assay (ELISA) is employed to measure secreted Aβ (Aβ42 and/or Aβ40) levels. In this example, H4 cells expressing wide type APP695 are seeded at 200,000 cells/per well in 6 well plates, and incubated at 37 degree C. with 5% CO2 overnight. Cells are treated with 1.5 ml medium containing vehicle (DMSO) or a test compound at 1.25 μM, 2.5 μM, 5.0 μM and 10.0 μM (as well as other concentration if desirable) concentration for 24 hours or 48 hours. The supernatant from treated cells is collected into eppendorf tubes and frozen at −80 degree C. for future analysis.
The amyloid peptide standard is reconstituted and frozen samples are thawed. The samples and standards are diluted with appropriate diluents and the plate is washed 4 times with Working Wash Buffer and patted dry on a paper towel. 100 μL per well of peptide standards, controls, and dilutions of samples to be analyzed is added. The plate is incubated for 2 hours while shaking on an orbital plate shaker at RT. The plate is then washed 4 times with Working Wash Buffer and patted dry on a paper towel. Detection Antibody Solution is poured into a reservoir and 100 μL /well of Detection Antibody Solution is immediately added to the plate. The plate is incubated at RT for 2 hours while shaking and then washed four times with Working Wash Buffer and patted dry on a paper towel. Secondary Antibody Solution is then poured into a reservoir and 100 μL /well of Secondary Antibody Solution is immediately added to the plate. The plate is incubated at RT for 2 hours with shaking, washed 5 times with Working Wash Buffer, and patted dry on a paper towel.
100 μL of stabilized chromogen is added to each well and the liquid in the wells begins to turn blue. The plate is incubated for 30 minutes at room temperature and in the dark. 100 μL of stop solution is added to each well and the plate is tapped gently to mix resulting in a change of solution color from blue to yellow. The absorbance of each well is read at 450 nm having blanked the plate reader against a chromogen blank composed of 100 μL each of stabilized chromogen and stop solution. The plate is read within 2 hours of adding the stop solution. The absorbance of the standards is plotted against the standard concentration and the concentrations of unknown samples and controls are calculated.
These compounds were synthesized via the indicated synthetic route. Ab42 IC50 (uM) refers to IC50 value for Ab42 lowering in e.g., the assay described in Example 6.

Setting [1] is: Ab42 lowering, cell based assay.
[2] abbreviates: IC50 value for Ab42 lowering in e.g. the assay described in Example 6.

Read-outs that look alike come from different tables or passages of the source. Where only a bound is given, the exact number is not on record here.

For `O=C(O)c1ccc(-n2c(-c3cc4ccccc4o3)cc3c2CCC(C(F)(F)F)C3)o1` (stereo not drawn) [5-(2-benzofuran-2-yl-5-trifluoromethyl-4,5,6,7-tetrahydroindol-1-yl)-furan-2-carboxylic acid], under setting [1], the IC50 is 44 µM.

Take `O=C(O)c1ccc(-n2c(-c3cc4ccccc4o3)cc3c2CC(C(F)(F)F)CC3)o1` (stereo not drawn) [5-(2-benzofuran-2-yl-6-trifluoromethyl-4,5,6,7-tetrahydroindol-1-yl)-furan-2-carboxylic acid]: the IC50 under setting [1] is 23 µM.

For `O=C(O)c1ccc(-n2c(-c3cc4ccccc4o3)cc3c4ccccc4ccc32)o1` [5-(2-benzofuran-2-yl-benzo[e]indol-3-yl) furan-2-carboxylic acid], the IC50 under setting [1] came to 22 µM.

With `O=C(O)c1ccc(-n2c(-c3ccccc3)cc3c2CCC(C(F)(F)F)C3)o1` (stereo not drawn) [5-(2-phenyl-5-trifluoromethyl 4,5,6,7-tetrahydroindol-1-yl)-furan-2-carboxylic acid], under setting [1], the IC50 amounted to 16.5 µM.

With `O=C(O)c1ccc(-n2c(-c3ccccc3)cc3c2CC(C(F)(F)F)CC3)o1` (stereo not drawn) [5-(2-phenyl-6-trifluoromethyl 4,5,6,7-tetrahydroindol-1-yl)-furan-2-carboxylic acid], the concentration for half-maximal inhibition (IC50) under setting [1] worked out at 25 µM.

In the case of `O=C(O)c1ccc(-n2c(-c3ccccc3)cc3c4ccccc4ccc32)o1` [5-(2-phenylbenzo[e]indol-3-yl)furan-2-carboxylic acid], the concentration for half-maximal inhibition (IC50) under setting [1] was found to be 22 µM.

For `O=C(O)c1ccc(-n2c(-c3ccccc3)cc3c2CCC(C2CCCCC2)C3)o1` (stereo not drawn) [5-(5-cyclohexyl-2-phenyl-4,5,6,7-tetrahydroindol-1-yl)-furan-2-carboxylic acid], under setting [1], the IC50 is 40 µM.

Take `CC1CCc2c(cc(-c3ccccc3)n2-c2ccc(C(=O)O)o2)C1` (stereo not drawn) [5-(5-methyl-2-phenyl-4,5,6,7-tetrahydroindol-1-yl) furan-2-carboxylic acid]: the IC50 under setting [1] is greater than 100 µM.

As for `COC(=O)c1ccc(-n2c(-c3ccccc3)cc3c2CCC(C(C)(C)C)C3)o1` (stereo not drawn) [5-(5-tertButyl-2-phenyl-4,5,6,7-tetrahydroindol-1-yl) furan-2-carboxylic acid methyl ester], the half-inhibitory concentration (IC50) under setting [1] is greater than 100 µM.

Turning to `CC(C)(C)C1CCc2c(cc(-c3ccccc3)n2-c2ccc(C(=O)O)o2)C1` (stereo not drawn) [5-(5-tertButyl-2-phenyl-4,5,6,7-tetrahydroindol-1-yl) furan-2-carboxylic acid], under setting [1], the IC50 worked out at 3.7 µM.

In the case of `CC1CCc2cc(-c3ccccc3)n(-c3ccc(C(=O)O)o3)c2C1` (stereo not drawn) [5-(6-methyl-2-phenyl-4,5,6,7-tetrahydroindol-1-yl) furan-2-carboxylic acid], under setting [1], the IC50 is greater than 100 µM.

Regarding `O=C(O)c1ccc(-n2c(-c3ccc(Cl)c(Cl)c3)cc3c2CCCC3C(F)(F)F)o1` (stereo not drawn) [5-[2-(3,4-dichlorophenyl)-4-trifluoromethyl-4,5,6,7-tetrahydroindol-1-yl]-furan-2-carboxylic acid], the IC50 under setting [1] was 7.36 µM.

For `O=C(O)c1ccc(-n2c(-c3ccc(Cl)c(Cl)c3)cc3c2CCC(C(F)(F)F)C3)o1` (stereo not drawn) [5-[2-(3,4-dichlorophenyl)-5-trifluoromethyl 4,5,6,7-tetrahydroindol-1-yl]-furan-2-carboxylic acid], the IC50 under setting [1] came out at 1.6 µM.

Regarding `O=C(O)c1ccc(-n2c(-c3ccc(Cl)c(Cl)c3)cc3c2CC(C(F)(F)F)CC3)o1` (stereo not drawn) [5-[2-(3,4-dichlorophenyl)-6-trifluoromethyl-4,5,6,7-tetrahydroindol-1-yl]-furan-2-carboxylic acid], under setting [1], the 50% inhibitory concentration (IC50) was found to be 8.9 µM.

Take `O=C(O)c1ccc(-n2c(-c3ccc(Cl)c(Cl)c3)cc3c4ccccc4ccc32)o1` [5-[2-(3,4-dichlorophenyl)-benzo[e]indol-3-yl]-furan-2-carboxylic acid]: the half-inhibitory concentration (IC50) under setting [1] is 7 µM.

In the case of `O=C(O)c1coc(Cn2c(-c3cc(-c4ccccc4)no3)cc3c2CCc2ccccc2-3)c1` [5-[2-(3-phenylisoxazol-5-yl)-4,5-dihydrobenzo[e]indol-3-ylmethyl] furan-3-carboxylic acid], the 50% inhibitory concentration (IC50) under setting [1] was greater than 100 µM.

Regarding `O=C(O)c1ccc(-n2c(-c3cc(-c4ccccc4)no3)cc3c4ccccc4ccc32)o1` [5-[2-(3-phenylisoxazol-5-yl)-benzo[e]indol-3-yl] furan-2-carboxylic acid], under setting [1], the IC50 came to 33 µM.

Consider `O=C(O)c1coc(Cn2c(-c3cc(-c4ccccc4)no3)cc3c4ccccc4ccc32)c1` [5-[2-(3-phenylisoxazol-5-yl)-benzo[e]indol-3-ylmethyl] furan-3-carboxylic acid], for which the concentration for half-maximal inhibition (IC50) under setting [1] was greater than 100 µM.

With `O=C(O)c1ccc(-n2c(-c3ccc(N4CCOCC4)cc3)cc3c2CCC(C(F)(F)F)C3)o1` (stereo not drawn) [5-[2-(4-morpholin-4-yl-phenyl)-5-trifluoromethyl-4,5,6,7-tetrahydroindol-1-yl]-furan-2-carboxylic acid], the IC50 under setting [1] is 68 µM.

As to `O=C(O)c1ccc(-n2c(-c3ccc(C(F)(F)F)cc3)cc3c4ccccc4ccc32)o1` [5-[2-(4-trifluoromethylphenyl)-benzo[e]indol-3-yl]-furan-2-carboxylic acid], under setting [1], the IC50 stood at 21 µM.

For the molecule `CCC(C)(C)C1CCc2c(cc(-c3cc4ccccc4o3)n2-c2ccc(C(=O)O)o2)C1` (stereo not drawn) [5-[2-benzofuran-2-yl-5-(1,1-dimethylpropyl) 4,5,6,7-tetrahydroindol-1-yl]-furan-2-carboxylic acid], under setting [1], the 50% inhibitory concentration (IC50) is 18 µM.

On to `CCC(C)(C)C1CCc2c(cc(-c3ccccc3)n2-c2ccc(C(=O)O)o2)C1` (stereo not drawn) [5-[5-(1,1-dimethylpropyl)-2-phenyl-4,5,6,7-tetrahydroindol-1-yl]-furan-2-carboxylic acid], for which, under setting [1], the 50% inhibitory concentration (IC50) was found to be 5.1 µM.

Turning to `CC(C)(C)C1CCc2c(cc(-c3ccc(Cl)c(Cl)c3)n2-c2ccc(C(=O)O)o2)C1` (stereo not drawn) [5-[5-tButyl-2-(3,4-dichlorophenyl)-4,5,6,7-tetrahydroindol-1-yl] furan-2-carboxylic acid], the concentration for half-maximal inhibition (IC50) under setting [1] amounted to 11.7 µM.

In the case of `CC(C)(C)C1CCc2c(cc(-c3ccc(C(F)(F)F)cc3)n2-c2ccc(C(=O)O)o2)C1` (stereo not drawn) [5-[5-tButyl-2-(4-trifluoromethylphenyl)-4,5,6,7-tetrahydroindol-1-yl] furan-2-carboxylic acid], under setting [1], the 50% inhibitory concentration (IC50) was 14 µM.

`CC(C)(C)C1CCc2c(cc(-c3ccccc3)n2-c2nnc[nH]2)C1` (stereo not drawn) [5-tButyl-2-phenyl-1-(4H-[1,2,4]triazol-3-yl)-4,5,6,7-tetrahydro-1H-indole]: under setting [1], the IC50 came out at 63 µM.

Take `O=C(O)c1cccc(-n2c(-c3ccccc3)cc3ccccc32)c1` [Compound 17, 3-(2-phenylindol 1-yl) benzoic acid]: the IC50 under setting [2] was 55 µM.

`CC(C)(C)C1CCc2c(cc(-c3ccccc3)n2-c2cccc(C(=O)O)c2)C1` (stereo not drawn) [Compound 34, 3-(5-tert-butyl-2-phenyl-4,5,6,7-tetrahydroindol-1-yl)benzoic acid]: the IC50 under setting [2] worked out at 8 µM.

With `c1ccc(-c2cc3c(n2-c2cccc(-c4nn[nH]n4)c2)CCc2ccccc2-3)cc1` [Compound 63, 2-phenyl-3-[3-(2H-tetrazol-5-yl)-phenyl]-4,5-dihydro-3H-benzo[e]indole], under setting [2], the concentration for half-maximal inhibition (IC50) stood at 24 µM.

For the molecule `O=C(O)C1CCCC(n2c(-c3ccccc3)cc3c4ccccc4ccc32)C1` (stereo not drawn) [Compound 66, 3-(2-phenylbenzo[e]indol-3-yl) cyclohexane carboxylic acid], under setting [2], the IC50 is 54 µM.

In the case of `O=C(O)CCCn1c(-c2ccccc2)cc2c1CCc1ccccc1-2` [Compound 67, 4-(2-phenyl-4,5-dihydrobenzo[e]indol-3-yl) butyric acid], the IC50 under setting [2] worked out at 35 µM.

For `O=C(O)CCCn1c(-c2ccccc2)cc2c3ccccc3ccc21` [Compound 68, 4-(2-phenyl-benzo[e]indol-3-yl) butyric acid], the IC50 under setting [2] came out at 31 µM.

In the case of `O=C(O)c1ccc(-c2cc3c(n2-c2ccccc2)CCc2ccccc2-3)cc1` [Compound 69, 4-(3-phenyl-4,5-dihydro-3H-benzo[e]indol-2-yl) benzoic acid], under setting [2], the IC50 was found to be 45 µM.

Consider `O=C(O)c1cccc(-n2c(-c3ccccc3)cc3c2CCC(c2ccccc2)C3)c1` (stereo not drawn) [Compound 71, 3-(2,5-diphenyl 4,5,6,7-tetrahydroindol-1-yl) benzoic acid], for which the half-maximal inhibitory concentration (IC50) under setting [2] was determined as 50 µM.

In the case of `CC(C)(C)C1CCc2c(cc(-c3ccccc3)n2-c2cccc(CCC(=O)O)c2)C1` (stereo not drawn) [Compound 85, 3-[3-(5-tert-Butyl-2-phenyl 4,5,6,7-tetrahydroindol-1-yl)-phenyl] propionic acid], under setting [2], the half-maximal inhibitory concentration (IC50) is 20 µM.

As to `O=C(O)CCCc1ccc(-n2c(-c3ccccc3)cc3c2CCCC3)cc1` [Compound 86, 4-[4-(2-phenyl 4,5,6,7-tetrahydroindol-1-yl)-phenyl] butyric acid], the IC50 under setting [2] amounted to 30 µM.

With `O=C(O)c1cccc(-n2c(-c3ccccc3)cc3c4ccccc4ccc32)c1` [Compound 87, 3-(2-phenylbenzo[e]indol-3-yl) benzoic acid], the 50% inhibitory concentration (IC50) under setting [2] worked out at 12 µM.

Source of the values: US9034871B2, “Compounds for Alzheimer's disease” (priority 2004, dated 2015).
